Source: patent US20210379046A1, “Methods of Treating Diseases Using Kinase Modulators” (Memorial Sloan Kettering Cancer Center, priority 2018, published 2021)
“Also recorded” adds a separate entry of the source.

How the values were obtained:
[1] = system: TPC1 cells; test: ADCC chromium-51 release assay with ESK1 and human PBMCs on inhibitor-pretreated TPC1 cells; format: cell-based; details: TPC1 pretreated 72 hrs with 100 nM trametinib, at 3 or 4 E:T ratios
Description: Peripheral blood mononuclear cells were derived from healthy donors by Ficoll density centrifugation after receiving informed consent on Memorial Sloan Kettering Institutional Review board-approved protocols. TPC1 cells treated with RET inhibitor drugs and DMSO control were labeled with chromium-51 and co-cultured with PBMCs and ESK (or its isotype control, hIgG1). Different E:T ratios were used and after 5 hrs of incubation at 37° C., the supernatant was harvested and chromium levels were measured by Chromium-51 release assay (Perkin Elmer). Higher chromium levels indicated higher levels of cytotoxicity.
After the addition of ESK and peripheral blood mononuclear cells for 5 hrs, chromium release was measured.
For each experiment reported, fresh peripheral blood mononuclear cells were derived from a healthy donor by Ficoll density centrifugation after receiving informed consent on Memorial Sloan Kettering Institutional Review Board-approved protocols. […] Cells were then labeled with 1 uCi/well chromium-51 for 1 hr at 37° C. […] Different effector:target ratios were used and after 5 hrs of incubation at 37° C., the supernatant was harvested and chromium levels were measured through standard chromium-51 release assay on a Top Count machine (Perkin Elmer).

[2] = system: Human T cells; test: IFN-gamma ELISpot of peptide stimulated T cells; format: cell-based; details: T cells of HLA-A*02:01 positive healthy donors, autologous CD14+ cells presenting peptide
Excerpt: Peripheral blood mononuclear cells were again derived from healthy donors after receiving informed consent (see above). T cells were isolated by Ficoll density centrifugation and stimulated with pools of peptides that were selected from the population of: (1) new peptides that appeared after RET inhibitor treatment, (2) peptides found on cells before RET inhibitor treatment, and (3) irrelevant peptides not found on the target cells. CD14^+ cells were isolated from PBMCs by negative immunomagnetic cell separation using an isolation kit (Miltenyi Biotec). CD14 cells were used for stimulation in week one and autologous dendritic cells were generated for use thereafter. The purity of the cells was always more than 98%. Monocyte-derived dendritic cells (DCs) were generated from CD14+ cells, by culturing the cells in RPMI 1640 medium supplemented with 1% AP, 500 units/mL recombinant IL-4, and 1,000 units/mL GM-CSF. On days 2 and 4 of the incubation, fresh medium with IL-4 and GM-CSF was either added or replaced half of the culture medium. On day 6, maturation cytokine cocktail was added (IL-4, GM-CSF, 500 IU/mL IL-1, 1,000 IU/mL IL-6, 10 ng/ml TNF-α, and 1 ug/mL PGE-2).
An interferon-gamma ELISpot was performed at the beginning of week three. For this HA-Multiscreen plates (Millipore) were coated with 100 uL of mouse anti-human IFN-gamma antibody (10 ug/mL; clone 1-D1K, Mabtech #3420-2A) in PBS, incubated overnight at 4° C., washed with PBS to remove unbound antibody, and blocked with RPMI 1640/10% autologous plasma (AP) for 2 h at 37° C. Purified CD3^+ T cells (>98% pure) were plated with either autologous CD14^+ (10:1 E:APC ratio) or autologous DCs (30:1 E:APC ratio), Various test peptides were added to the wells at 20 ug/mL. Negative control wells contained. APCs and T cells without peptides or with irrelevant peptides. Positive control wells contained T cells plus APCs plus 20 ug/mL phytohemagglutinin (PHA, Sigma). All conditions were done in triplicates. Microtiter plates were incubated for 20 h at 37° C. and then extensively washed with PBS/0.05% Tween and 100 uL/well biotinylated detection antibody against human IFN-γ (2 ug/mL; clone 7-B6-1; Mabtech) was added. Plates were incubated for an additional 2 h at 37° C. and spot development was done as described. Spot numbers were read and determined by Zellnet Consulting In. T cell killing of target cells was measured at week five as described in the section of ADCC above.

[3] = system: SKOV3 cells; test: Surface HLA on SKOV3 cells; format: cell-based, human
Description: (§1) If adherent cells, they were seeded one day before treatment.
Experiments in this Example were performed as described in Section 6.1.2.

[4] = system: HLA-A, beta-2-microglobulin, TAP1, TAP2 in Karpas 299 and SUDHL-1 cells; test: Western blot and qPCR of HLA and antigen processing machinery in ALCL lines; format: cell-based, human; details: for HLA and antigen processing machinery transcript levels (qPCR): Karpas 299 and SUDHL-1, 48 hrs
Description: (§2) Cells were seeded in a 60 mm dish or 6 well plates. After the appropriate time point, cells were harvested and lysed and protein was quantified by a Lowry assay (Bio-Rad DC Protein Assay; #5000116). Protein levels were normalized and run on SDS PAGE gels (Bio-Rad). Protein was transferred to a nitrocellulose membrane using semi-dry transfer. Membrane was blocked and incubated with respective antibodies. When needed, secondary antibodies with HRP were incubated for 1 hr.
(§3) Cells were seeded in a 60 mm dish or 6 well plates. After the appropriate time point, cells were harvested, lysed in RIPA buffer (Thermo Instruments) and protein concentration was quantified by a Lowry assay (using the Bio-Rad DC Protein Assay; #5000116 on a Spectramax device from Molecular Devices). Protein loading levels were equalized per lane and separated on SDS gels (Bio-Rad). Protein was transferred to a nitrocellulose membrance using semi-dry transfer (BioRad). Membranes were blocked with Omniblock (American Bio) and incubated with respected antibodies. When needed, secondary antibodies with HRP were incubated for 1 hr.
Data were normalized to baseline expression of each analyzed gene separately.

[5] = system: SUDHL-1 cells; test: Flow cytometry of cell surface HLA on SUDHL-1 cells; format: cell-based, human; details: SUDHL-1, 72 hrs, increasing concentrations
Description: as §1

[6] = system: pERK in H2228 cells; test: Western blot of pERK in H2228 cells; format: cell-based, human; details: H2228, 100 nM
Description: as §2, §3

[7] = system: pERK in SUDHL-1 cells; test: Western blot of pERK in SUDHL-1 cells; format: cell-based, human; details: SUDHL-1, 3 hrs
Description: as §2, §3

[8] = system: pERK in Karpas 299 cells; test: Western blot of pERK in Karpas 299 cells; format: cell-based, human; details: Karpas 299, 3 hrs
Description: as §2, §3

[9] = system: Karpas 299 tumors; test: Karpas 299 subcutaneous tumors in mice, tumor HLA and PD-L1 by flow cytometry; format: in vivo; details: Karpas 299 tumors, daily oral gavage
Description: Female NSG (NOD.Cg-Prkdc^scidIl2rg^tm1Wj1/SzJ) and NRG (NOD.Cg-Rag1^tm1MomIl2rg^tm1Wj1/SzJ) mice were purchased from the Jackson Laboratory or MSKCC breeding facility at 5-10 weeks old. For RET and ALK experiments, 2.5-6×10^6 tumor cells were subcutaneously injected into the flank of mice and when tumors were palpable, mice were treated daily with drug or vehicles through oral gavage. At day 7, tumors were harvested and flow cytometry was run to determine effect of inhibitors on HLA and PD-L1 on the tumor cells.
The highly immunodeficient NRG (NOD-Rag1null IL2rgnull) mice were subcutaneously injected with 2.5×10^6 luciferase tagged TPC1 cells in their right flank. […] Afterwards, cells were immediately harvested and stained with antibodies against HLA-A*02:01 and HLA-ABC.
All animal experiments were conducted in accordance with and the approval of the MSKCC IACUC (Institutional Animal Care and Use Committee) protocols. Female NSG (NOD. Cg-Prkdc^scidIl2rg^tm1Wj1/SzJ) and NRG (NOD.Cg-Rag1^tm1MomIl2rg^tm1Wj1/SzJ) mice were purchased from the Jackson Laboratory at 5-10 weeks old. For experiments in vivo with RET and ALK, 2.5-6×10^6 tumor cells in PBS were subcutaneously injected into the flank of mice. When tumors were palpable (2-3 mm), mice were treated daily with drugs or vehicles through oral gavage of drugs in 200 ul of water. At day 4 or 7, tumors were harvested and flow cytometry was conducted to determine the effect of inhibitors on HLA and PD-L1 on the tumor cells. […] TPC1 cells were transduced with luciferase and GFP on an SFG vector and this allowed gating of the tumor cells in flow cytometry.

[10] = system: Karpas 299 cells; test: Flow cytometry of cell surface HLA and checkpoint ligands on Karpas 299 cells; format: cell-based, human; details: for cell surface HLA-A,B,C: Karpas 299, 72 hrs, increasing concentrations
Description: as §1

[11] = system: Karpas 299 and SUDHL-1 cells; test: Sensitivity of ALCL cells to ALK inhibitors; format: cell-based, human
[12] = system: LC-2/ad cells; test: Flow cytometry of cell surface HLA on LC-2/ad cells; format: cell-based, human; details: 72 hrs
Description: as §1

[13] = system: TT cells; test: Flow cytometry of cell surface HLA on TT cells; format: cell-based, human; details: 72 hrs
Description: as §1

[14] = system: JAK signaling (pSTAT1) in Karpas299 and TPC1 cells; test: IFN-γ stimulation and ruxolitinib control in Karpas299 and TPC1 cells; format: cell-based, human
Description: Cells were harvested and stained with anti-HLA-A02 antibody (BB7-FITC) for flow cytometry. […] (B) Karpas299 and TPC1 cells were treated with DMSO, IFN-γ, or IFN-γ and RUX for 72 hours.
Supernatant media were harvested after treatment and analyzed by the Luminex device (Luminex Corporation, Austin, Tex.) for relevant cytokine secretion. […] On the left side of each panel is data after 24 hours. On the right side of each panel is data after 48 hours. […] The data points shown in this figure are in pairs for each condition. The data point pairs for each time point are, from left to right: DMSO, Rux, Alec, IFNg, and IFNg+Rux.

For CC(=O)Nc1cccc(-n2c(=O)n(C3CC3)c(=O)c3c(Nc4ccc(I)cc4F)n(C)c(=O)c(C)c32)c1 [trametinib], which “improved lysis by ESK1” value [1] is on record?
Its value is “about 10%”.

Which “T cell mediated IFN gamma response (ELISpot)” value [2] does the source give for “TYLEKAIKI (control peptide) [TYLEKAIKI (SEQ ID NO:6), control peptide found before drug treatment on TPC1 cells]” here?
The value was “No response”.

Which “T cell mediated IFN gamma response (ELISpot)” value [2] does the source give for “ILDKKVEKV (control peptide) [ILDKKVEKV (SEQ ID NO:7), control peptide found before drug treatment on TPC1 cells]” here?
The value was “No response”.

With CS(=O)(=O)CCNCc1ccc(-c2ccc3ncnc(Nc4ccc(OCc5cccc(F)c5)c(Cl)c4)c3c2)o1 [lapatinib] as the molecule, how does the HLA upregulation [3] read?
Its HLA upregulation is “upregulated HLA”.

“GRKPPLLKK (irrelevant peptide) [GRKPPLLKK (SEQ ID NO:9), irrelevant peptide, negative control]” was tested. Which “T cell mediated IFN gamma response (ELISpot)” value [2] did it give?
Its value is “No response”.

Which results are given for C[C@@H](Oc1cc(-c2cnn(C3CCNCC3)c2)cnc1N)c1c(Cl)ccc(F)c1Cl [crizotinib]?
HLA and antigen processing machinery transcript levels (qPCR) [4]: showed increases in HLA and antigen processing machinery transcript levels; cell surface HLA-A,B,C [5]: increased surface HLA in a dose-related manner; also recorded: increases in cell surface HLA; pERK levels [6]: did not change pERK levels; pERK levels ([6]; listed as Crizotinib): does not decrease pERK levels; pERK levels [7]: inhibited pERK expression; pERK levels [8]: dose-related reduction of pERK at 3 hours; also recorded: dose-related, reduction of pERK at 3 hours; tumor PD-L1 levels in vivo [9]: PD-L1 levels decreased with increasing doses; also recorded: PD-L1 levels decreased in vivo; tumor cell surface HLA-A,B,C in vivo [9]: increased slightly in a dose-response manner, though not all mice responded; also recorded: increased modestly in a dose-dependent manner; surface HLA-E levels ([10]; Karpas 299): did not change; HLA levels increase compared to control cells treated with DMSO ([10]; Karpas 299, 1 uM, 72 hour incubation): 4 fold; cell surface HLA-A,B,C [10]: increased levels of surface HLA-A,B,C; also recorded: increased levels of surface HLA class I complexes; also recorded: increases in cell surface HLA

How did the “T cell mediated IFN gamma response (ELISpot)” value [2] turn out when “ILQAHLHSL (control peptide) [ILQAHLHSL (SEQ ID NO:8), control peptide found before drug treatment on TPC1 cells]” was run?
The value was “No response”.

For Cc1cc(Nc2ncc(Cl)c(Nc3ccccc3S(=O)(=O)C(C)C)n2)c(OC(C)C)cc1C1CCNCC1 [ceritinib], which “HLA and antigen processing machinery transcript levels (qPCR)” value [4] is on record?
Its value is “Increase in RNA levels of HLA and antigen processing machinery”.

And the “HLA-A and beta-2-microglobulin protein levels (western blot)” value ([4]; Karpas 299 and SUDHL-1, 72 hrs)?
The value was “show increase in HLA-A and beta-2-microglobulin”.

What about the “cell surface HLA-A,B,C” value [5] of the same molecule?
Its value is “cell surface HLA increased in both cell lines in a dose-dependent manner”.

What about the pERK levels [6] of the same molecule?
Its pERK levels is “slightly decreased pERK levels”.

And the pERK levels ([6]; listed as Ceritinib)?
Its pERK levels is “minimal changes in pERK levels; also recorded: decreased pERK levels very slightly”.

What about the pERK levels [7] of the same molecule?
The pERK levels was “shut down pERK levels”.

What about the pERK levels [8] of the same molecule?
The pERK levels was “shut down pERK levels”.

What about the “sensitivity of cells to ceritinib compared with crizotinib” value [11] of the same molecule?
Its value is “more sensitive to ceritinib than crizotinib, and died at lower concentrations”.

What about the “cell surface HLA-A,B,C” value [10] of the same molecule?
Its value is “cell surface HLA increased in both cell lines in a dose-dependent manner”.

Which results are given for COc1cc2ncnc(Oc3cccc(NC(=O)Nc4cc(C(C)(C)C(F)(F)F)on4)c3)c2cc1OC [CEP-32496]?
surface HLA [12]: minimal effects on HLA upregulation; also recorded: Small changes in cell surface HLA; surface HLA [13]: minimal effects on HLA upregulation; also recorded: Small changes in cell surface HLA

What does the source list for “IFNγ: interferon gamma used as positive control”?
phosphorylated STAT1 (pSTAT1) ([14]; Karpas299 and TPC1, IFN-γ or IFN-γ and RUX, 72 hours): upregulated in both cell lines; IL4 and IL6 secretion ([14]; Karpas299 and TPC1, IFNγ 100 ng/ml, ruxolitinib 1000 nm): increased both IL4 and IL6
